Entries after “also recorded” stand apart in the source; their conditions may differ.
Tests used:
WT and Myo1a KO mice [1] = assay: Spared nerve injury (SNI) neuropathic pain model, mechanical thresholds (Von Frey, up-down); format: in vivo; conditions: for reversal of SNI-induced mechanical hypersensitivity: both genotypes (WT and Myo1a KO), i.t 10 nmol SNC80, 0.2 nmol DAMGO, 0.1 μg baclofen, 2 μg TAFA4, 40 μg taurine, i.p 3 mg/kg pregabalin
Method: (A-D) Mechanical responses of WT and KO mice following SNI surgery and i.t administration at indicated time-points of 10 nmol of SNC80, 0.2 nmol of DAMGO (A), 0.1 μg of baclofen, 2 μg of TAFA4 (n=6 mice per genotype) (B), 40 μg of taurine, i.p administration of 3 mg/kg of pregabalin (n=8 mice per genotype) (C) and i.t administration of 0.15 μg of muscimol (n=8 mice per genotype) (D).
(§1) SNC80 (Tocris Bioscience) was dissolved in a 100 mM HCl solution, DAMGO (Sigma Aldrich) was dissolved in saline (0.9% NaCl), Baclofen (Sigma Aldrich) was dissolved in H2O (pH7.6), recombinant human TAFA4 (R&D Systems) was dissolved in saline, Diazepam (DZP, Roche) was dissolved in 10% dimethyl sulfoxide (DMSO)/90% saline, Muscimol (Tocris Bioscience), Taurine (Sigma Aldrich), Bicuculline (Sigma Aldrich) and Pregabalin (Sigma Aldrich) were dissolved in Phosphate Buffer (PB, 50 mM, pH 7.4).
(§2) Except for pregabalin, all drugs were administrated via intratechal (i.t) injection. Pregabalin was injected intra-peritoneally (i.p).
(§3) All behavioral analyses were conducted on 8-12 weeks old Myo1a KO and WT males. All experiments were carried at room temperature (˜22° C.). Animals were acclimated for one hour to their testing environment prior to all experiments. Experimenters were blind to the genotype of the mice during testing. All error bars represent SEM. All statistical analysis was carried using Two Way Repeated Measures ANOVA followed by Bonferroni's post-hoc test. Openfield, Rotarod, Hot plate and Formalin tests were carried as described in Gaillard et al., 2014 (Gaillard et al., 2014).
(§4) Mechanical thresholds of the plantar surface were determined using Von Frey's filaments with the up-down method (Chaplan et al., 1994), previously as described (Gaillard et al., 2014) prior to and at several time-points after inflammation, neuropathy and paw-incision surgery.
Spared nerve injury surgery was performed as described (Shields et al., 2003). Briefly, mice were anesthetized with a mix of ketamine/xylazine and an incision was made through the skin and thigh muscle at the level of the trifurcation of the sciatic nerve. The common sural and peroneal nerves were ligated using a 6.0 silk filament (Ethicon, Piscataway, N.J., USA) and transected, while leaving the tibial nerve intact. After surgery, the animals were allowed to recover in a warming chamber, and then they were returned to their home cages. Mechanical thresholds were determined at days 7, 9 and 14 post-surgery, before and after drug administration.

WT and Myo1a KO mice [2] = assay: Zymosan-A induced inflammatory pain model, mechanical thresholds (Von Frey, up-down); format: in vivo; conditions: for reversal of zymosan-induced mechanical hypersensitivity: i.t 0.15 μg muscimol, 0.09 mg/kg DZP
Method: (E-G) Mechanical responses of WT and KO mice following zymosan-induced inflammation (n=9 mice per genotype) (E) and i.t administration at indicated time-points of 0.15 μg of muscimol, 10 nmol of SNC80 (n=9 mice per genotype) (F) and 0.09 mg/kg of DZP (G) (n=7 mice per genotype). Data are presented as mean±SEM for each group (*p<0.05; **p<0.01; ***p<0.001; ns: non-significant).
as §1, §2, §3, §4
20 μl of a solution containing 1% carrageenan in H2O (weight/vol, Sigma) or 20 μl of a solution containing 0.06 mg Zymosan-A in 0.9% NaCl (weight/vol, Sigma), were injected subcutaneously into the plantar side of the left hindpaw, using a 30 G needled syringe.
For carrageenan-induced inflammation, mechanical thresholds were determined prior to inflammation and at several time-points (see legend) starting from 1 hour and up to 60 days after inflammation. For zymosan inflammation, mechanical thresholds were measured prior to injection, at day 1 and at several time-points (see legend) up day 60. In addition, mechanical thresholds in the zymosan model were measured before inflammation, at day 1 and day 2, before and after drug administration.

laminae II neurons = assay: Whole-cell patch-clamp recording of spontaneous EPSC in spinal cord slices; format: cell-based, mice
Method: (C-F) Whole cell recordings of spontaneous EPSC in laminae II interneurons after Musc application in naïve (C-D) and in zymosan-inflamed WT and KO mice (E-F).
Left panels: representative traces of EPSC obtained under ACSF (black traces), following superfusion of 5 μM Musc (blue traces) and during wash (brown traces).
Middle panels: Cumulative distribution of EPSC intervals (in seconds) for the experiments shown in the left panels. Note the shift of the Musc/blue curves towards the left (C, D, E middle panels), indicating a reversible increase in EPSC frequency.
Right panels: Normalized EPSC frequency (mean±SEM) under ACSF, following superfusion of 5 μM Musc and during wash. Note the absence of effect of Musc in slices from zymosan inflamed mice. The number of recorded cells is indicated in the right panels (*p<0.05; **p<0.01; ns: non-significant). (See also FIG. 8).
Transverse spinal cord slices with attached dorsal roots from juvenile (P24 to P45) Myo1a KO and WT mice were prepared for whole-cell recording. Briefly, the animals were anesthetized using Pentobarbital (200 mg/kg), perfused with ice cold oxygenated low calcium artificial cerebrospinal fluid (ACSF; in mM: NaCl 101; KCl 3.8; MgCl2 18.7, MgSO4 1.3; KH2PO4 1.2; HEPES 10; CaCl2 1; Glucose 1), and then beheaded. The vertebral column and surrounding muscles were quickly removed and immersed in ice cold oxygenated ACSF. Following laminectomy, the spinal cord was gently removed and its lumbar part was placed into a small 3% agarose block. Spinal slices (300 μm thick) were cut using a Leica VTS1000 vibratome, and transferred in warm (31° C.) ACSF (in mM: NaCl 130.5; KCl 2.4; CaCl2 2.4; NaHCO3 19.5; MgSO4 1.3; KH2PO4 1.2; HEPES 1.25; glucose 10; pH 7.4) equilibrated with 95%02-5% CO2 for at least one hour before starting patch clamp recordings. Spinal slices were placed in a recoding chamber bathed with warmed (31° C.) ACSF Electrophysiological measurements were performed under the control of an Olympus BX51 microscope using a multiclamp 2B (Molecular devices). Patch pipettes ([…]) were filled with C-based pipette solution (in mM: CsMethaneSulfonate 120; CsCl 20; CaCl2 0.1; MgCl2 1.3; EGTA 1; HEPES 10; GTP 0.1; cAMP 0.2; Leupeptin 0.1; Na2ATP 3; D-Manitol 77; pH 7.3). A glass suction electrode connected to a Master 8 (A.M.P. Instrument Ltd) stimulator was used to stimulate dorsal roots. Typically, a pair of high duration (500 μs) high intensity stimulations (350 μA) was used to recruit most primary afferent fibers in the recorded slice. All drugs were purchased from Sigma. Statistical comparison of EPSC frequencies was assessed for each cell using Kolmogorov-Smirnov test.

Compound: NCC(CC(=O)O)c1ccc(Cl)cc1 (stereo not shown) [baclofen]
- reversal of injury-induced mechanical hypersensitivity (conclusions summary) (WT and Myo1a KO mice [1]; Myo1a KO mice): transiently reversed
- reversal of SNI-induced mechanical hypersensitivity (WT and Myo1a KO mice [1]): significantly reversed

Compound: CN1C(=O)CN=C(c2ccccc2)c2cc(Cl)ccc21 [diazepam]
- reversal of zymosan-induced mechanical hypersensitivity (WT and Myo1a KO mice [2]; Myo1a KO mice, 0.09 mg/kg): had no effect and not
- reversal of zymosan-induced mechanical hypersensitivity (WT and Myo1a KO mice [2]; Myo1a KO mice, listed as DZP, 0.09 mg/kg): totally insensitive
- reversal of zymosan-induced mechanical hypersensitivity (WT and Myo1a KO mice [2]; WT mice): strongly reversed

Compound: CC(C)C[C@H](CN)CC(=O)O [pregabalin]
- reversal of injury-induced mechanical hypersensitivity (conclusions summary) (WT and Myo1a KO mice [1]; Myo1a KO mice): transiently reversed
- reversal of SNI-induced mechanical hypersensitivity (WT and Myo1a KO mice [1]): significantly reversed

Compound: NCc1cc(=O)[nH]o1 [muscimol]
- reversal of injury-induced mechanical hypersensitivity (conclusions summary) (WT and Myo1a KO mice [1]; Myo1a KO mice): not
- reversal of SNI-induced mechanical pain (WT and Myo1a KO mice [1]; Myo1a KO mice, i.t 0.15 μg muscimol): completely failed to reverse; also recorded: totally insensitive
- reversal of zymosan-induced mechanical hypersensitivity (WT and Myo1a KO mice [2]; Myo1a KO mice): had no effect
- reversal of zymosan-induced mechanical hypersensitivity (WT and Myo1a KO mice [2]; WT mice): strongly reversed
- sEPSC frequency (laminae II neurons; naïve WT mice, bath application of 5 μM muscimol): significant increase
- increase in sEPSC frequency (laminae II neurons; naïve slices from Myo1a KO mice, 5 μM muscimol): 544%
- sEPSC frequency, effect relative to naïve WT (laminae II neurons; slices from WT mice inflamed with zymosan, 5 μM muscimol): almost doubled
- sEPSC frequency (laminae II neurons; slices from zymosan inflamed Myo1a KO mice, 5 μM muscimol): had no effect

Compound: TAFA4: recombinant human TAFA4 (R&D Systems), a chemokine-like protein
- reversal of injury-induced mechanical hypersensitivity (conclusions summary) (WT and Myo1a KO mice [1]; Myo1a KO mice): transiently reversed
- reversal of SNI-induced mechanical hypersensitivity (WT and Myo1a KO mice [1]): significantly reversed

Compound: C=CCN1C[C@H](C)N([C@H](c2ccc(C(=O)N(CC)CC)cc2)c2cccc(OC)c2)C[C@H]1C [SNC80]
- reversal of SNI-induced mechanical hypersensitivity (WT and Myo1a KO mice [1]): significantly reversed
- reversal of zymosan-induced mechanical pain (WT and Myo1a KO mice [2]; both genotypes, i.t 10 nmol SNC80): strongly reversed

Compound: C[C@@H](NC(=O)[C@@H](N)Cc1ccc(O)cc1)C(=O)NCC(=O)N(C)[C@@H](Cc1ccccc1)C(=O)NCCO [DAMGO]
- reversal of SNI-induced mechanical hypersensitivity (WT and Myo1a KO mice [1]): significantly reversed

Compound: NCCS(=O)(=O)O [taurine]
- reversal of injury-induced mechanical hypersensitivity (conclusions summary) (WT and Myo1a KO mice [1]; Myo1a KO mice): transiently reversed
- reversal of SNI-induced mechanical hypersensitivity (WT and Myo1a KO mice [1]): significantly reversed
